Columns and labels:
Adenosine receptor A2a = Adenosine receptor A2a (Homo sapiens, UniProt P29274); experiment: Displacement of [3H]ZM241385 from human A2A receptor expressed in HEK293 cells after 1 hr by liquid scintillation counting; assay type: cell-based
HEK293 = experiment: Selectivity ratio of Ki for human A1 receptor expressed in CHO cells to Ki for human A2A receptor expressed in HEK293 cells; assay type: cell-based

Adenosine receptor A2a, sequence (P29274 whole entry): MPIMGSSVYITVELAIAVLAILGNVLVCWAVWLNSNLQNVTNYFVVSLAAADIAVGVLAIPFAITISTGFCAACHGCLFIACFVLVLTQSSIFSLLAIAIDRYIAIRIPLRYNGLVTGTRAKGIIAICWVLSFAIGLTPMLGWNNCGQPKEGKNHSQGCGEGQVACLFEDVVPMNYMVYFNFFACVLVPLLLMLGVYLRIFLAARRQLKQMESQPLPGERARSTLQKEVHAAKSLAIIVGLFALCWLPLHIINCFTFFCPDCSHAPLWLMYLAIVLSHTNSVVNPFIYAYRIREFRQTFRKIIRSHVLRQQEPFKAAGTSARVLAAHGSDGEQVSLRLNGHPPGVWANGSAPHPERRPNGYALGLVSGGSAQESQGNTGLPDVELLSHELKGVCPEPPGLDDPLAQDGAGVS

SMILES	Ki (Adenosine receptor A2a) [nM]	Ratio Ki (HEK293)
O=C(c1ccc(F)cc1)c1c[nH]c(C(=O)NCCCn2ccnc2)c1	4680	–
COc1ccc(N2CC(C(=O)NC(Cc3ccccc3)C(=O)O)CC2=O)cc1 (stereo unspecified)	2950	–
CC1CC(c2ccccc2)n2nc(N3C(=O)C4CC=CCC4C3=O)nc2N1 (stereo unspecified)	2000	–
Nc1cccc(CC2SC(=O)NC2=O)c1 (stereo unspecified)	7080	–
Cc1csc(-c2coc3cc(OCC(=O)O)cc(C)c3c2=O)n1	2240	–
NC(c1csc(Nc2nncc3ccccc23)n1)c1ccccc1Cl (stereo unspecified)	2400	–
Cc1cc(O)c(C(C)C)cc1N=C1CSC(=O)N1	1780	–

These reach a lower Ki (Adenosine receptor A2a). Values come first.

Ki (Adenosine receptor A2a) [nM]	SMILES	Ratio Ki (HEK293)
1230	COCCN1C(=O)c2[nH]nc(-c3ccccc3O)c2C1c1ccc(F)cc1 (stereo unspecified)	–
708	CSc1nc2nc3c(c(O)n2n1)CN(Cc1ccccc1)CC3	–
33.9	CC(=O)Oc1cc(C)c2c(=O)c(-c3nc(C)cs3)coc2c1	13
15.1	CCc1cc2c(=O)c(-c3nc(C)cs3)coc2cc1OCC(=O)OC(C)C	> 100
12.3	CC(C)c1nc(N)nc(-c2ccccc2O)n1	37
3.47	Cc1ccsc1/C=C/c1nc(N)nc(-c2ccccc2O)n1	9.5
1.58	COC1CCN(c2cccc(-c3nc(N)nc(-c4ccccc4O)n3)c2)CC1	19
1.02	CN1CCN(C(=O)c2cccc(-c3nc(N)nc(-c4ccccc4O)n3)c2)CC1	59

From ChEMBL document CHEMBL2029292, “Identification of novel adenosine A(2A) receptor antagonists by virtual screening” (J Med Chem, 2012)
